Experimental data from ChEMBL document CHEMBL4000166, “Stachybotrysin, an Osteoclast Differentiation Inhibitor from the Marine-Derived Fungus Stachybotrys sp. KCB13F013” (J Nat Prod, 2016).
Active and inactive are the calls of the source. The calls are words filed in the database; no cut-off is given here.

Experiments:
[1] = test system: BMMC; test: Inhibition of M-CSF/RANKL-induced osteoclast differentiation in mouse BMMC at 5 to 10 ug/ml after 4 days by TRAP staining method; type: functional, cell-based
[2] = target: MAP kinase p38 (Mus musculus) (UniProt P47811+O08911+Q9WUI1+Q9Z1B7); test: Inhibition of M-CSF/RANKL-induced p38 phosphorylation in mouse BMMC at 5 ug/ml preincubated with M-CSF for 6 mins followed by RANKL addition measured after 5 mins by Western blot method
[3] = test system: BMMC; test: Inhibition of M-CSF/RANKL-induced osteoclast differentiation in mouse BMMC after 4 days by TRAP staining method; type: functional, cell-based
[4] = species: Mus musculus; test: Inhibition of M-CSF/RANKL-induced JNK phosphorylation in mouse BMMC at 5 ug/ml preincubated with M-CSF for 6 mins followed by RANKL addition measured after 5 mins by Western blot method
[5] = target: T1, NF-kappa-B inhibitor alpha (Mus musculus) (UniProt Q9Z1E3); test: Effect on IkappaBalpha phosphorylation in mouse BMMC at 5 ug/ml preincubated with M-CSF for 6 mins followed by RANKL addition measured after 5 to 30 mins by Western blot method
T1 sequence (whole entry): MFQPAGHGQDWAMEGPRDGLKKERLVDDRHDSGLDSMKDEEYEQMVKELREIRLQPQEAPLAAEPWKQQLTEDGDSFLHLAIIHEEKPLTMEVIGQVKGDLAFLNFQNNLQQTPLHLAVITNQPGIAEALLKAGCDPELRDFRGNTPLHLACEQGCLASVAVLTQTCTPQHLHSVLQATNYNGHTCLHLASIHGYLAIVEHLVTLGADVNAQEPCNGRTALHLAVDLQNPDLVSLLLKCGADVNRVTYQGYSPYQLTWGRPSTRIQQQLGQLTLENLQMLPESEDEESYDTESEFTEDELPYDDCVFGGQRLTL

[6] = species: Mus musculus; test: Inhibition of M-CSF/RANKL-induced ERK phosphorylation in mouse BMMC at 5 ug/ml preincubated with M-CSF for 6 mins followed by RANKL addition measured after 5 mins by Western blot method

inhibition [2] | inhibition [4] | Activity [5] | inhibition [6] | SMILES | inhibition [1] | inhibition [3]
– | – | – | – | C[C@@H]1CC[C@H]2C(C)(C)[C@H](O)CC[C@]2(C)[C@@]12Cc1c(O)cc3c(c1O2)C(=O)OC3 | inactive | –
Active | Active | inactive | Active | CC(=O)/C=C/c1c(CO)cc(O)c2c1O[C@]1(C2)[C@H](C)CC[C@H]2C(C)(C)[C@H](O)CC[C@@]21C | – | Dose-dependent effect
